Tested on: human XIST transcript
Test: XIST knock down by XIST ASOs (Table 1)
Assay type: cell-based
Parameters: ASO conc at max KD: unit not given here
Details: for % Max KD: XIST knock down, cells treated for 72 hrs with XIST ASO; for ASO conc at max KD: concentration of XIST ASO giving max KD, 72 hrs
Text: The methods include administering an inhibitor of an XIST RNA itself, e.g., an inhibitory nucleic acid targeting XIST RNA. Although in typical usage XIST refers to the human sequence and XIST to the mouse sequence, in the present application the terms are used interchangeably. The human XIST sequence is available in the ensemble database at ENSG00000229807; it is present on Chromosome X at 73,820,651-73,852,753 reverse strand (Human GRCh38.p2). The sequences of exons 1-6 are shown in SEQ ID NOs:73-79 (see FIG. 2); XIST exons correspond to 601-11972 (exon 1); 15851-15914 (exon 2); 19593-20116 (exon 3); 21957-21984 (exon 4); 22080-22288 (exon 5); and 23887-33304 (exon 6). […] The inhibitory nucleic acid targeting XIST RNA can be any inhibitory nucleic acid as described herein, and can include modifications described herein or known in the art. In some embodiments, the inhibitory nucleic acid is an antisense oligonucleotide (ASO) that targets a sequence in XIST RNA, e.g., a sequence within an XIST exon as shown in SEQ ID NO:1-45 or within the RNA sequence as set forth in NR_001564.2, preferably wherein the ASO comprises a sequence as shown in Table 1. In some embodiments, the inhibitory nucleic includes at least one locked nucleotide, e.g., is a locked nucleic acid (LNA). Table 1 provides a list of ASOs that have more than 80% XIST knock down when cells are treated for 72 hrs with the below XIST ASOs.

ASO 1A: XIST antisense oligonucleotide TAGTTAGCACTCCTGCTGCT, SEQ ID NO 7 (listed as DNA, chemistry not given here)
% Max KD: 98%
ASO conc at max KD: 20

ASO 1B: XIST antisense oligonucleotide GCCTGCCATATTGTCCCTGC, SEQ ID NO 14 (listed as DNA, chemistry not given here)
% Max KD: 96%
ASO conc at max KD: 20

ASO 1C: XIST antisense oligonucleotide TGAGGCACCAATACAGAGGA, SEQ ID NO 18 (listed as DNA, chemistry not given here)
% Max KD: 95%
ASO conc at max KD: 20

ASO 1D: XIST antisense oligonucleotide TCAGACTGTATGACTGACAT, SEQ ID NO 8 (listed as DNA, chemistry not given here)
% Max KD: 98%
ASO conc at max KD: 20

ASO 1E: XIST antisense oligonucleotide GAATTCCTCTTCTGCCACCT, SEQ ID NO 28 (listed as DNA, chemistry not given here)
% Max KD: 91%
ASO conc at max KD: 20

ASO 1F: XIST antisense oligonucleotide TTTAGCTCATGCAATGCACA, SEQ ID NO 9 (listed as DNA, chemistry not given here)
% Max KD: 98%
ASO conc at max KD: 20

ASO 1G: XIST antisense oligonucleotide CTGAGATCACAGACAAATGG, SEQ ID NO 19 (listed as DNA, chemistry not given here)
% Max KD: 95%
ASO conc at max KD: 20

ASO 1P: XIST antisense oligonucleotide TAGCTCATGCAATGCACATG, SEQ ID NO 2 (listed as DNA, chemistry not given here)
% Max KD: 99%
ASO conc at max KD: 100

ASO 1R: XIST antisense oligonucleotide CTGTGACTACAGAAGCAATG, SEQ ID NO 22 (listed as DNA, chemistry not given here)
% Max KD: 94%
ASO conc at max KD: 100

ASO 1S: XIST antisense oligonucleotide CAGAAACCCAAGTCTAATTG, SEQ ID NO 23 (listed as DNA, chemistry not given here)
% Max KD: 94%
ASO conc at max KD: 20

ASO 1T: XIST antisense oligonucleotide AGGATGAACCATGTGGTGAT, SEQ ID NO 24 (listed as DNA, chemistry not given here)
% Max KD: 93%
ASO conc at max KD: 20

ASO 1U: XIST antisense oligonucleotide CTTACAACTGTGCACCTTGA, SEQ ID NO 15 (listed as DNA, chemistry not given here)
% Max KD: 96%
ASO conc at max KD: 100

ASO 1V: XIST antisense oligonucleotide AGGACCTTATTCACATGGAA, SEQ ID NO 10 (listed as DNA, chemistry not given here)
% Max KD: 98%
ASO conc at max KD: 20

ASO 1W: XIST antisense oligonucleotide CTTAAGTAGTAGGTACTTCC, SEQ ID NO 3 (listed as DNA, chemistry not given here)
% Max KD: 99%
ASO conc at max KD: 20

ASO 1X: XIST antisense oligonucleotide ACTCAGCAGCAATGGCAAAG, SEQ ID NO 29 (listed as DNA, chemistry not given here)
% Max KD: 89%
ASO conc at max KD: 100

ASO 3P: XIST antisense oligonucleotide TAGATTAGCTGGAGCTTGGC, SEQ ID NO 4 (listed as DNA, chemistry not given here)
% Max KD: 99%
ASO conc at max KD: 100

ASO 4A: XIST antisense oligonucleotide GGTTGTTGCCCAGTGGTAGT, SEQ ID NO 35 (listed as DNA, chemistry not given here)
% Max KD: 84%
ASO conc at max KD: 20

ASO 4B: XIST antisense oligonucleotide CCAGGAAAGTATCTTGACAG, SEQ ID NO 32 (listed as DNA, chemistry not given here)
% Max KD: 88%
ASO conc at max KD: 100

ASO 4P: XIST antisense oligonucleotide GTTGTTGCCCAGTGGTAGTG, SEQ ID NO 33 (listed as DNA, chemistry not given here)
% Max KD: 88%
ASO conc at max KD: 100

ASO 5A: XIST antisense oligonucleotide CAAATTTCTTGGACCTGCTG, SEQ ID NO 16 (listed as DNA, chemistry not given here)
% Max KD: 96%
ASO conc at max KD: 20

ASO 5B: XIST antisense oligonucleotide TTTCTTGGACCTGCTGAAGA, SEQ ID NO 20 (listed as DNA, chemistry not given here)
% Max KD: 95%
ASO conc at max KD: 20

ASO 5P: XIST antisense oligonucleotide GTTCAAATTTCTTGGACCTG, SEQ ID NO 34 (listed as DNA, chemistry not given here)
% Max KD: 88%
ASO conc at max KD: 20

ASO 5Q: XIST antisense oligonucleotide CAGATAGGAACAATGAAGAG, SEQ ID NO 30 (listed as DNA, chemistry not given here)
% Max KD: 89%
ASO conc at max KD: 100

ASO 6A: XIST antisense oligonucleotide TATGGCCCACAGTCTAAAGT, SEQ ID NO 1 (listed as DNA, chemistry not given here)
% Max KD: 99.3%
ASO conc at max KD: 20

ASO 6B: XIST antisense oligonucleotide AGAAGTCTGGCACATCTGTG, SEQ ID NO 11 (listed as DNA, chemistry not given here)
% Max KD: 98%
ASO conc at max KD: 100

ASO 6C: XIST antisense oligonucleotide TTGGCCTTGTGTCACAAGTC, SEQ ID NO 12 (listed as DNA, chemistry not given here)
% Max KD: 97%
ASO conc at max KD: 20

ASO 6D: XIST antisense oligonucleotide TCAAGACTGGCCCAGGCATA, SEQ ID NO 17 (listed as DNA, chemistry not given here)
% Max KD: 96%
ASO conc at max KD: 20

ASO 6E: XIST antisense oligonucleotide AGTTCAGGCTGTCCCCTTGG, SEQ ID NO 26 (LNA gapmer with DNA gap, wing lengths and linkages not given here)
% Max KD: 92%
ASO conc at max KD: 20

ASO 6I: XIST antisense oligonucleotide GTTCTGCACCTATCAGGCAG, SEQ ID NO 25 (listed as DNA, chemistry not given here)
% Max KD: 93%
ASO conc at max KD: 20

ASO 6P: XIST antisense oligonucleotide CCAGAGTGGTAGAAGAGATA, SEQ ID NO 27 (listed as DNA, chemistry not given here)
% Max KD: 92%
ASO conc at max KD: 20

ASO 6Q: XIST antisense oligonucleotide TCAGAAGTCTGGCACATCTG, SEQ ID NO 5 (listed as DNA, chemistry not given here)
% Max KD: 99%
ASO conc at max KD: 100

ASO 6R: XIST antisense oligonucleotide GGCCTTGTGTCACAAGTCTC, SEQ ID NO 6 (listed as DNA, chemistry not given here)
% Max KD: 99%
ASO conc at max KD: 100

ASO 6S: XIST antisense oligonucleotide CTGAGGATTGTTTCTGAAAG, SEQ ID NO 21 (listed as DNA, chemistry not given here)
% Max KD: 95%
ASO conc at max KD: 100

ASO 6T: XIST antisense oligonucleotide CCCACAGAAAGTAATCACCA, SEQ ID NO 31 (listed as DNA, chemistry not given here)
% Max KD: 89%
ASO conc at max KD: 20

ASO 6U: XIST antisense oligonucleotide CTTTGTCCCAGGCACAGTCA, SEQ ID NO 13 (listed as DNA, chemistry not given here)
% Max KD: 97%
ASO conc at max KD: 20

Reference: patent US20230383292A1, “TARGETING XIST AND RNA METHYLATION FOR X REACTIVATION THERAPY” (The General Hospital Corporation, priority 2020, published 2023)
